Experimental data from publication PMC11079024, “Identification of a family of species-selective complex I inhibitors as potential anthelmintics” (Nature Communications, 2024).
Values joined by “and” are separate entries in the source; they are usually repeats but may differ in a detail not shown here. Equal values may be shown once. Read-outs that look alike come from different tables or passages of the source.

Target: C. elegans complex II (succinate dehydrogenase) (Caenorhabditis elegans, UniProt O62215+P41956+Q09545)
Sequence (P41956 30-182): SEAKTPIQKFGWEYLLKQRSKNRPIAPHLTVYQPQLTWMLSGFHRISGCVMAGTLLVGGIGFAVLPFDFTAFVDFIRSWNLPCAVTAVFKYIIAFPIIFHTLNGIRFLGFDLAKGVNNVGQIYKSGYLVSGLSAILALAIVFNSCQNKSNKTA
Sequence (Q09545 22-298): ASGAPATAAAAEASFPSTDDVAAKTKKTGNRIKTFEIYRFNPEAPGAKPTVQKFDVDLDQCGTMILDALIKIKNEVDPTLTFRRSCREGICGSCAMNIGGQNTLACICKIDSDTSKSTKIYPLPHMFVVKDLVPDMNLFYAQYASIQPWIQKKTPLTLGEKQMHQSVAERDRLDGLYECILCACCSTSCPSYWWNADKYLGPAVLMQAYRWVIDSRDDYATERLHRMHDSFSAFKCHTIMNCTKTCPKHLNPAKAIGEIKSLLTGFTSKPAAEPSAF
Sequence (Q09508 32-646, further chain): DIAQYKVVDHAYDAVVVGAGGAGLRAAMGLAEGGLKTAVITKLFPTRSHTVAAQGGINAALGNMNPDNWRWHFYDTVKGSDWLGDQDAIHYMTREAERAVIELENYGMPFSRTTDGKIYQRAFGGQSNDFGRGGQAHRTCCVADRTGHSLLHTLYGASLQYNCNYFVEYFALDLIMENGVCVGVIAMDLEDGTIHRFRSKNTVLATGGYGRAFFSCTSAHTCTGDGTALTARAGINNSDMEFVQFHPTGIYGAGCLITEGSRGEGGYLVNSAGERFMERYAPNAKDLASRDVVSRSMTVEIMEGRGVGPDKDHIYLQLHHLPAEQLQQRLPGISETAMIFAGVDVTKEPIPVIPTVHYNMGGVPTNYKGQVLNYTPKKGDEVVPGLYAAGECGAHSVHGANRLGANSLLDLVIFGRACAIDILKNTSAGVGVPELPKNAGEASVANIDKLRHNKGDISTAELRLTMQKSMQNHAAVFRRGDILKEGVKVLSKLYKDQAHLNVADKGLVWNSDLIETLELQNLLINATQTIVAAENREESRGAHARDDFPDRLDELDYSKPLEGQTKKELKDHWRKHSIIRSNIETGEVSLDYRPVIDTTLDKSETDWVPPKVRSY
Sequence (O62215 31-145): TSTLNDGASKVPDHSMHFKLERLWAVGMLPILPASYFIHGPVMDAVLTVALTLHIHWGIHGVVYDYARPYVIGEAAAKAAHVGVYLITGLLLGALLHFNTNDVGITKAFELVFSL
Test: In vitro complex II activity assay, C. elegans mitochondria
Format: biochemical
Settings: for Percent in vitro activity, Complex II (single replicate Rep1-Rep4): individual biological replicates; for IC50: wild-type (N2) mitochondria
Summary of the method: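 Mitochondria isolated from adult C. elegans were diluted to 0.2 mg/mL protein and assayed for complex II by the DCIP-coupled method. A600 was read every 30 s over 15 min, with initial linear slope expressed as percent of solvent control. Screening was at 100 μM (≥3 biological replicates), followed by dose-response.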

[1] = 100 µM compound, relative to solvent control, mean (SEM), read-out: % Activity Complex II
[2] = 100 μM of NPD compound, C. elegans mitochondria, 100 µM
[3] = 100 μM of NPD compound, C. elegans mitochondria, mean of four biological replicates, read-out: Percent in vitro activity, Complex II (Mean)
[4] = dose 0.0001 µM, individual replicates, wild-type C. elegans
[5] = dose 0.0005 µM, individual replicates, wild-type C. elegans
[6] = dose 0.001 µM, individual replicates, wild-type C. elegans
[7] = dose 0.0025 µM, individual replicates, wild-type C. elegans
[8] = dose 0.005 µM, individual replicates, wild-type C. elegans
[9] = dose 0.013 µM, individual replicates, wild-type C. elegans
[10] = dose 0.025 µM, individual replicates, wild-type C. elegans
[11] = dose 0.063 µM, individual replicates, wild-type C. elegans
[12] = dose 0.125 µM, individual replicates, wild-type C. elegans
[13] = dose 0.313 µM, individual replicates, wild-type C. elegans
[14] = dose 0.625 µM, individual replicates, wild-type C. elegans
[15] = dose 1.5 µM, individual replicates, wild-type C. elegans
[16] = dose 3 µM, individual replicates, wild-type C. elegans
[17] = dose 15 µM, individual replicates, wild-type C. elegans
[18] = dose 75 µM, individual replicates, wild-type C. elegans

COc1cc2c(cc1OC)C(c1ccc(-c3ccc(Cl)c(Cl)c3)o1)=NCC2 [NPD3577]
activity at 100 µM [1]: 115% | Percent in vitro activity, Complex II (single replicate Rep1-Rep4) [2]: 133.014% and 126.621% and 103.513% and 97.309% | activity at 100 µM [3]: 115%

COc1cc2c(cc1OC)C(/C=C/c1ccc(N(C)C)cc1)=NCC2 [NPD6303]
activity at 100 µM [1]: 101% | Percent in vitro activity, Complex II (single replicate Rep1-Rep4) [2]: 124.122% and 89.817% and 91.578% and 100.352% | activity at 100 µM [3]: 101%

CC(C)Cc1ccc(C(C)c2nc3ccccc3n2C)cc1 (stereo not shown) [NPD8790]
activity at 100 µM [1]: 99.7% | Percent in vitro activity, Complex II (single replicate Rep1-Rep4) [2]: 81.090% and 92.425% and 103.697% and 121.642% | activity at 100 µM [3]: 99.7%

COc1cc2c(cc1OC)C(C(C)c1ccc(CC(C)C)cc1)=NCC2 (stereo not shown) [NPD10504]
activity at 100 µM [1]: 106% | Percent in vitro activity, Complex II (single replicate Rep1-Rep4) [2]: 86.801% and 136.285% and 101.347% and 99.840% | activity at 100 µM [3]: 106%

C=C(C)[C@H]1Cc2c(ccc3c2O[C@@H]2COc4cc(OC)c(OC)cc4[C@@H]2C3=O)O1 [Rotenone, reference compound]
activity at 100 µM [1]: 106% | activity at 100 µM (100 μM inhibitor, in vitro activity relative to solvent control, N2 C. elegans mitochondria, Mean, read-out: CII Activity): 106% | Percent in vitro activity, Complex II (single replicate Rep1-Rep4) [2]: 120.467% and 95.666% and 95.033% and 112.709% | activity at 100 µM [3]: 106%

Cc1cc(O)c2c(c1)O[C@@]1(C)CC[C@H]3C(C)(C)CCC[C@]34CO[C@@H]2[C@H]41 [Siccanin]
remaining activity at 0.0001 µM (dose 0.0001 µM, Mean of replicates, wild-type C. elegans, read-out: percent (%) in vitro complex II activity relative to solvent control): 103% | percent (%) in vitro complex II activity relative to solvent control [4]: 101.370% and 113.242% | remaining activity at 0.0001 µM (dose 0.0001 µM, individual replicates, wild-type C. elegans, read-out: percent (%) in vitro complex II activity relative to solvent control): 95.2% | remaining activity at 0.0005 µM (dose 0.0005 µM, Mean of replicates, wild-type C. elegans, read-out: percent (%) in vitro complex II activity relative to solvent control): 104% | percent (%) in vitro complex II activity relative to solvent control [5]: 86.897% and 113.059% and 111.964% | remaining activity at 0.001 µM (dose 0.001 µM, Mean of replicates, wild-type C. elegans, read-out: percent (%) in vitro complex II activity relative to solvent control): 84.8% | percent (%) in vitro complex II activity relative to solvent control [6]: 69.310% and 87.306% and 97.900% | remaining activity at 0.0025 µM (dose 0.0025 µM, Mean of replicates, wild-type C. elegans, read-out: percent (%) in vitro complex II activity relative to solvent control): 76.6% | percent (%) in vitro complex II activity relative to solvent control [7]: 54.828% and 79.635% and 95.343% | remaining activity at 0.005 µM (dose 0.005 µM, Mean of replicates, wild-type C. elegans, read-out: percent (%) in vitro complex II activity relative to solvent control): 64.8% | percent (%) in vitro complex II activity relative to solvent control [8]: 62.831% and 72.146% | remaining activity at 0.005 µM (dose 0.005 µM, individual replicates, wild-type C. elegans, read-out: percent (%) in vitro complex II activity relative to solvent control): 59.3% | remaining activity at 0.013 µM (dose 0.013 µM, Mean of replicates, wild-type C. elegans, read-out: percent (%) in vitro complex II activity relative to solvent control): 42.5% | percent (%) in vitro complex II activity relative to solvent control [9]: 45.480% and 44.018% | remaining activity at 0.013 µM (dose 0.013 µM, individual replicates, wild-type C. elegans, read-out: percent (%) in vitro complex II activity relative to solvent control): 37.9% | remaining activity at 0.025 µM (dose 0.025 µM, Mean of replicates, wild-type C. elegans, read-out: percent (%) in vitro complex II activity relative to solvent control): 27.5% | percent (%) in vitro complex II activity relative to solvent control [10]: 28.128% and 27.763% | remaining activity at 0.025 µM (dose 0.025 µM, individual replicates, wild-type C. elegans, read-out: percent (%) in vitro complex II activity relative to solvent control): 26.6% | remaining activity at 0.063 µM (dose 0.063 µM, Mean of replicates, wild-type C. elegans, read-out: percent (%) in vitro complex II activity relative to solvent control): 13% | percent (%) in vitro complex II activity relative to solvent control [11]: 17.717% and 11.872% | remaining activity at 0.063 µM (dose 0.063 µM, individual replicates, wild-type C. elegans, read-out: percent (%) in vitro complex II activity relative to solvent control): 9.48% | remaining activity at 0.125 µM (dose 0.125 µM, Mean of replicates, wild-type C. elegans, read-out: percent (%) in vitro complex II activity relative to solvent control): 9.4% | percent (%) in vitro complex II activity relative to solvent control [12]: 1.897% and 15.890% and 10.411% | remaining activity at 0.313 µM (dose 0.313 µM, Mean of replicates, wild-type C. elegans, read-out: percent (%) in vitro complex II activity relative to solvent control): 6.54% | percent (%) in vitro complex II activity relative to solvent control [13]: 4.655% and 12.968% and 2.009% | remaining activity at 0.625 µM (dose 0.625 µM, Mean of replicates, wild-type C. elegans, read-out: percent (%) in vitro complex II activity relative to solvent control): 3.28% | percent (%) in vitro complex II activity relative to solvent control [14]: 3.621% and 6.210% | remaining activity at 1.5 µM (dose 1.5 µM, Mean of replicates, wild-type C. elegans, read-out: percent (%) in vitro complex II activity relative to solvent control): 9.39% | percent (%) in vitro complex II activity relative to solvent control [15]: 5.345% and 10.046% and 12.785% | remaining activity at 3 µM (dose 3 µM, Mean of replicates, wild-type C. elegans, read-out: percent (%) in vitro complex II activity relative to solvent control): 3.77% | percent (%) in vitro complex II activity relative to solvent control [16]: 3.448% and 7.854% | remaining activity at 15 µM (dose 15 µM, Mean of replicates, wild-type C. elegans, read-out: percent (%) in vitro complex II activity relative to solvent control): 1.28% | percent (%) in vitro complex II activity relative to solvent control [17]: 1.461% and 2.374% | remaining activity at 37.5 µM (dose 37.5 µM, Mean of replicates, wild-type C. elegans, read-out: percent (%) in vitro complex II activity relative to solvent control): 0% | remaining activity at 37.5 µM (dose 37.5 µM, individual replicates, wild-type C. elegans, read-out: percent (%) in vitro complex II activity relative to solvent control): 0% | remaining activity at 75 µM (dose 75 µM, Mean of replicates, wild-type C. elegans, read-out: percent (%) in vitro complex II activity relative to solvent control): 1.83% | percent (%) in vitro complex II activity relative to solvent control [18]: 5.480% | IC50: 10.7 nM

O=C(NCCc1ccc(Cl)cc1)c1ccccc1C(F)(F)F [Wact-11]
% Activity Complex II (100 µM compound, relative to solvent control, mean (SEM)): 24.43 (0.62) % | CII Activity (100 μM inhibitor, in vitro activity relative to solvent control, N2 C. elegans mitochondria, Mean): 24.430% | Percent in vitro activity, Complex II (single replicate Rep1-Rep4) (100 μM of NPD compound, C. elegans mitochondria): 25.363% and 20.777% and 26.220% | Percent in vitro activity, Complex II (Mean) (100 μM of NPD compound, C. elegans mitochondria, mean of four biological replicates): 24.431% | percent (%) in vitro complex II activity relative to solvent control (dose 0.0001 µM, Mean of replicates, wild-type C. elegans): 94.900% | percent (%) in vitro complex II activity relative to solvent control [4]: 104.455% and 86.022% and 94.224% | percent (%) in vitro complex II activity relative to solvent control (dose 0.0005 µM, Mean of replicates, wild-type C. elegans): 92.990% | percent (%) in vitro complex II activity relative to solvent control [5]: 105.223% and 78.802% and 94.946% | percent (%) in vitro complex II activity relative to solvent control (dose 0.001 µM, Mean of replicates, wild-type C. elegans): 95.541% | percent (%) in vitro complex II activity relative to solvent control [6]: 97.389% and 94.470% and 94.765% | percent (%) in vitro complex II activity relative to solvent control (dose 0.0025 µM, Mean of replicates, wild-type C. elegans): 86.830% | percent (%) in vitro complex II activity relative to solvent control [7]: 88.172% and 83.871% and 88.448% | percent (%) in vitro complex II activity relative to solvent control (dose 0.005 µM, Mean of replicates, wild-type C. elegans): 71.382% | percent (%) in vitro complex II activity relative to solvent control [8]: 74.194% and 66.667% and 73.285% | percent (%) in vitro complex II activity relative to solvent control (dose 0.013 µM, Mean of replicates, wild-type C. elegans): 42.140% | percent (%) in vitro complex II activity relative to solvent control [9]: 41.167% and 38.863% and 46.390% | percent (%) in vitro complex II activity relative to solvent control (dose 0.025 µM, Mean of replicates, wild-type C. elegans): 24.327% | percent (%) in vitro complex II activity relative to solvent control [10]: 28.111% and 21.045% and 23.827% | percent (%) in vitro complex II activity relative to solvent control (dose 0.063 µM, Mean of replicates, wild-type C. elegans): 7.305% | percent (%) in vitro complex II activity relative to solvent control [11]: 6.298% and 1.536% and 14.079% | percent (%) in vitro complex II activity relative to solvent control (dose 0.125 µM, Mean of replicates, wild-type C. elegans): 1.918% | percent (%) in vitro complex II activity relative to solvent control [12]: 3.226% and 0.000% and 2.527% | percent (%) in vitro complex II activity relative to solvent control (dose 0.313 µM, Mean of replicates, wild-type C. elegans): 0.000% | percent (%) in vitro complex II activity relative to solvent control [13]: 0.000% | percent (%) in vitro complex II activity relative to solvent control (dose 0.625 µM, Mean of replicates, wild-type C. elegans): 2.509% | percent (%) in vitro complex II activity relative to solvent control [14]: 0.000% and 7.527% | percent (%) in vitro complex II activity relative to solvent control (dose 1.5 µM, Mean of replicates, wild-type C. elegans): 0.000% | percent (%) in vitro complex II activity relative to solvent control [15]: 0.000% | percent (%) in vitro complex II activity relative to solvent control (dose 3 µM, Mean of replicates, wild-type C. elegans): 0.717% | percent (%) in vitro complex II activity relative to solvent control [16]: 0.000% and 2.151% | percent (%) in vitro complex II activity relative to solvent control (dose 15 µM, Mean of replicates, wild-type C. elegans): 2.650% | percent (%) in vitro complex II activity relative to solvent control [17]: 0.000% and 6.144% and 1.805% | percent (%) in vitro complex II activity relative to solvent control (dose 37.5 µM, Mean of replicates, wild-type C. elegans): 1.029% | percent (%) in vitro complex II activity relative to solvent control (dose 37.5 µM, individual replicates, wild-type C. elegans): 0.000% and 0.922% and 2.166% | percent (%) in vitro complex II activity relative to solvent control (dose 75 µM, Mean of replicates, wild-type C. elegans): 0.000% | percent (%) in vitro complex II activity relative to solvent control [18]: 0.000% | IC50: 7.1 nM
